Format in all cases: cell-based
Experiment [1] addresses T1, αvβ1 (Homo sapiens, UniProt P05556+P06756).
T1 construct: host or cells: A549-αvβ1
In words: Cell Adhesion Assay αvβ1. The conditions noted are these: A549-αvβ1 cells, ligand LAP-b1, 2 mM MgCl2; read-out: mean affinity (pIC50) αvβ1 (converted). As for the experimental part:
(§1) The following cell lines are used, with ligands in brackets: K562-αvβ3 (LAP-b1), K562-αvβ5 (Vitronectin), K562-αvβ6 (LAP-b1), K562-αvβ8 (LAP-b1), A549-αvβ1 (LAP-b1). The divalent cation used to facilitate adhesion is 2 mM MgCl2. Adhesion is quantified by cell labelling with the fluorescent dye BCECF-AM (Life Technologies), where cell suspensions at 3×10^6cells/nnL are incubated with 0.33 uL/mL of 30 mM BCECF-AM at 37° C. for 10 minutes, then 50 μL/well are dispensed into the 96-well assay plate. At the assay conclusion cells that adhered are lysed using 50 μL/well of 0.5% Triton X-100 in H2O to release fluorescence. Fluorescence intensity is detected using an Envision® plate reader (Perkin Elmer). For active antagonists in the assay, data is fitted to a 4 parameter logistic equation for IC50 determinations.
(§2) Those of skill in the art will recognise that in vitro binding assays and cell-based assays for functional activity are subject to experimental variability.

Experiment [2] deals with T2, αvβ8 (Homo sapiens, UniProt P06756+P26012).
T2 construct: expressed in transfected cells; host or cells: K562-αvβ8
The experiment in a line: Cell Adhesion Assay αvβ8. The conditions noted are these: K562-αvβ8 cells, ligand LAP-b1, 2 mM MgCl2; read-out: mean affinity (pIC50) αvβ8 (converted). As for the experimental part:
as §1, §2

Experiment [3] concerns the target T3, αvβ6 (Homo sapiens, UniProt P06756+P18564).
T3 construct: expressed in transfected cells; host or cells: K562-αvβ6
The experiment in a line: Cell Adhesion Assay αvβ6. The note with it: K562-αvβ6 cells, ligand LAP-b1, 2 mM MgCl2; read-out: mean affinity (pIC50) αvβ6 (converted). As for the experimental part:
as §1, §2

Experiment [4] addresses T4, αvβ3 (Homo sapiens, UniProt P05106+P06756).
T4 construct: expressed in transfected cells; host or cells: K562-αvβ3
The experiment in a line: Cell Adhesion Assay αvβ3. The note with it: K562-αvβ3 cells, ligand LAP-b1, 2 mM MgCl2; read-out: mean affinity (pIC50) αvβ3 (converted). Here is the method: as §1, §2

The target of experiment [5] is T5, αvβ5 (Homo sapiens, UniProt P06756+P18084).
T5 construct: expressed in transfected cells; host or cells: K562-αvβ5
The experiment in a line: Cell Adhesion Assay αvβ5. The conditions noted are these: K562-αvβ5 cells, ligand Vitronectin, 2 mM MgCl2; read-out: mean affinity (pIC50) αvβ5 (converted). Here is the method:
as §1, §2

T4 sequence (P06756 31-889 limits assumed): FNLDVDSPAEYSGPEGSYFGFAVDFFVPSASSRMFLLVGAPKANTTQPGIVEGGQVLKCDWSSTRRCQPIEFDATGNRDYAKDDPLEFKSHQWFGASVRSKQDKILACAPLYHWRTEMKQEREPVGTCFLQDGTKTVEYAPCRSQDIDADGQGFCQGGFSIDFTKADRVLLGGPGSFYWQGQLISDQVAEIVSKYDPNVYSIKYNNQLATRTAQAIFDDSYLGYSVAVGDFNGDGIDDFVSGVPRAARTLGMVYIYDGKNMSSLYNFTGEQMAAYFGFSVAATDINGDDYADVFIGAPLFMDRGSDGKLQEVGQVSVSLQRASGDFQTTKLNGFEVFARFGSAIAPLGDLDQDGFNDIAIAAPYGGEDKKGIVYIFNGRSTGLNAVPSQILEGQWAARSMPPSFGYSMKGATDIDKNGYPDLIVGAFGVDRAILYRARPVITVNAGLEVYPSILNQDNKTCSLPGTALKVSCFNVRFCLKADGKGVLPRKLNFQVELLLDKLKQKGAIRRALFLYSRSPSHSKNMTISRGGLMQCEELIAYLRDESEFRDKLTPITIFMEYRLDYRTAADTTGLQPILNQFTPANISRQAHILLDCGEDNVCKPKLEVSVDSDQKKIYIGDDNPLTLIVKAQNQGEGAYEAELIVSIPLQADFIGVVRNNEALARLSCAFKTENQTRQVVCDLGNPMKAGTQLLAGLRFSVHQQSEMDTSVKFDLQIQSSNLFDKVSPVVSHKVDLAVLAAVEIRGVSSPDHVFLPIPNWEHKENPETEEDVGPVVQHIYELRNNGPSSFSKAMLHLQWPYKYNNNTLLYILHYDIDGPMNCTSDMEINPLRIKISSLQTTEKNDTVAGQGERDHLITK
T4 sequence (P06756 891-1048 partner limits assumed): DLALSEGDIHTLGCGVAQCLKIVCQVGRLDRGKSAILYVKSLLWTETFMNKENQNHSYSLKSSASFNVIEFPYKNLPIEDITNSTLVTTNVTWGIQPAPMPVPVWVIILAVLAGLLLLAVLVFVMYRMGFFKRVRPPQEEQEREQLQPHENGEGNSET
T4 sequence (P05106 27-788): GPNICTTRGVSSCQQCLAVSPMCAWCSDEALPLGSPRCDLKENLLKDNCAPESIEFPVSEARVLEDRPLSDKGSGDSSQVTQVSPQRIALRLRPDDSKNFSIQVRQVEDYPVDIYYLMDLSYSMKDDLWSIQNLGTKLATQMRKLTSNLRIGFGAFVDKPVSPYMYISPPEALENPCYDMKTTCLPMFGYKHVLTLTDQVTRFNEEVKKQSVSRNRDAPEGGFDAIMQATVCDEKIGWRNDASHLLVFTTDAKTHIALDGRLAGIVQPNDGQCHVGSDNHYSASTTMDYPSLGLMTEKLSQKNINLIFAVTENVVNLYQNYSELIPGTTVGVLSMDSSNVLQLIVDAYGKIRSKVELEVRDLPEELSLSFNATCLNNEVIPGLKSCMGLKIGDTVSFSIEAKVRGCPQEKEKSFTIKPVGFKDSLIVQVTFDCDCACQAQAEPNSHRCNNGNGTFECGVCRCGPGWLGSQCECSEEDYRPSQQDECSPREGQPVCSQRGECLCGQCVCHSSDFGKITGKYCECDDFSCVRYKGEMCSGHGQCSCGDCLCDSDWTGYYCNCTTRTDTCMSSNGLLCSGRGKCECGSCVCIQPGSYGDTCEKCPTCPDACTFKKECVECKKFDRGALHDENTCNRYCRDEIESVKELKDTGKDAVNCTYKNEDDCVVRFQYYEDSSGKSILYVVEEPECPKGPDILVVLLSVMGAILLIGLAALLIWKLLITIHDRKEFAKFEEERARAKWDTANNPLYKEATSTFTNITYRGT
T1 sequence (P06756 31-889 limits assumed): as the sequence (P06756 31-889 limits assumed) above
T1 sequence (P06756 891-1048 partner limits assumed): as the sequence (P06756 891-1048 partner limits assumed) above
T1 sequence (P05556 21-798): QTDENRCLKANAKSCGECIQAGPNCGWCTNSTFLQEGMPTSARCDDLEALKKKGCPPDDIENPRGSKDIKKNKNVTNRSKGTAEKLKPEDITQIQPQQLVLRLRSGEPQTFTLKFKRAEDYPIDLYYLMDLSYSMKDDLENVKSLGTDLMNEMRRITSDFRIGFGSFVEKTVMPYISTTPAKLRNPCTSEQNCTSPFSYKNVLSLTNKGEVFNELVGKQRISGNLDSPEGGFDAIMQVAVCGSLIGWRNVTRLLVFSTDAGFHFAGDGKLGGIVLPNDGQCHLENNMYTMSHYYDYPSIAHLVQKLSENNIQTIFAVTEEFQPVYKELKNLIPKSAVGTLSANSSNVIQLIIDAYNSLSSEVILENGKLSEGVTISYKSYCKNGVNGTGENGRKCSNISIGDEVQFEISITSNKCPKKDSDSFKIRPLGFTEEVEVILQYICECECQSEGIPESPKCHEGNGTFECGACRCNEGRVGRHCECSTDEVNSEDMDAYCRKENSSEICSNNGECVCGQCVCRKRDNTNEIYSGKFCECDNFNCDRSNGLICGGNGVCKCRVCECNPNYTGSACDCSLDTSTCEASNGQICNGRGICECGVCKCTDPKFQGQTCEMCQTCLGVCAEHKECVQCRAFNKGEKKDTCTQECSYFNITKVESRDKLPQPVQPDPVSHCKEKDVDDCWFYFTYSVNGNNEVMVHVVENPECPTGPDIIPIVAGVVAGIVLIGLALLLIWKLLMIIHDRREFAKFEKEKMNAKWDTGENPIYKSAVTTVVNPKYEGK
T5 sequence (P06756 31-889 limits assumed): as the sequence (P06756 31-889 limits assumed) above
T5 sequence (P06756 891-1048 partner limits assumed): as the sequence (P06756 891-1048 partner limits assumed) above
T5 sequence (P18084 24-799): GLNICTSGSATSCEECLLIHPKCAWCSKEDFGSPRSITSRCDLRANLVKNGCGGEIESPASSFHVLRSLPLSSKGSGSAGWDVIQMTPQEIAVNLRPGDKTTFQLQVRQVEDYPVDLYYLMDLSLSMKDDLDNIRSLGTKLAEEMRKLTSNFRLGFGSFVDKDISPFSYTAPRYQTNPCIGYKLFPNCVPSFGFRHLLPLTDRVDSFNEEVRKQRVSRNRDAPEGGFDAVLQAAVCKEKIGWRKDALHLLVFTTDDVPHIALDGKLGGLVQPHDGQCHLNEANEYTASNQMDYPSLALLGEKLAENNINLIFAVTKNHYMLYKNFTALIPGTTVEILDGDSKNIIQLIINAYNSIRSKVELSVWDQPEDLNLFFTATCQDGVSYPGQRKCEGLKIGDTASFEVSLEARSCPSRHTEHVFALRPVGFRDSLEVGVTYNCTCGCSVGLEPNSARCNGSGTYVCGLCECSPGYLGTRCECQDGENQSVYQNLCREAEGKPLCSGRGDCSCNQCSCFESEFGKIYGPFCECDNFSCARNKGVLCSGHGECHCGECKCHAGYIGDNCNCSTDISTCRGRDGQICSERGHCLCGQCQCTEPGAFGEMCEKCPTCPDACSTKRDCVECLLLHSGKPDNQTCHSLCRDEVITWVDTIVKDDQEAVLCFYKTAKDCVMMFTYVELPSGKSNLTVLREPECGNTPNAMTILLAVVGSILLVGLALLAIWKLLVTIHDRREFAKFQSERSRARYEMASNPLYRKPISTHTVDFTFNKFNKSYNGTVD
T3 sequence (P06756 31-889 limits assumed): as the sequence (P06756 31-889 limits assumed) above
T3 sequence (P06756 891-1048 partner limits assumed): as the sequence (P06756 891-1048 partner limits assumed) above
T3 sequence (P18564 22-788): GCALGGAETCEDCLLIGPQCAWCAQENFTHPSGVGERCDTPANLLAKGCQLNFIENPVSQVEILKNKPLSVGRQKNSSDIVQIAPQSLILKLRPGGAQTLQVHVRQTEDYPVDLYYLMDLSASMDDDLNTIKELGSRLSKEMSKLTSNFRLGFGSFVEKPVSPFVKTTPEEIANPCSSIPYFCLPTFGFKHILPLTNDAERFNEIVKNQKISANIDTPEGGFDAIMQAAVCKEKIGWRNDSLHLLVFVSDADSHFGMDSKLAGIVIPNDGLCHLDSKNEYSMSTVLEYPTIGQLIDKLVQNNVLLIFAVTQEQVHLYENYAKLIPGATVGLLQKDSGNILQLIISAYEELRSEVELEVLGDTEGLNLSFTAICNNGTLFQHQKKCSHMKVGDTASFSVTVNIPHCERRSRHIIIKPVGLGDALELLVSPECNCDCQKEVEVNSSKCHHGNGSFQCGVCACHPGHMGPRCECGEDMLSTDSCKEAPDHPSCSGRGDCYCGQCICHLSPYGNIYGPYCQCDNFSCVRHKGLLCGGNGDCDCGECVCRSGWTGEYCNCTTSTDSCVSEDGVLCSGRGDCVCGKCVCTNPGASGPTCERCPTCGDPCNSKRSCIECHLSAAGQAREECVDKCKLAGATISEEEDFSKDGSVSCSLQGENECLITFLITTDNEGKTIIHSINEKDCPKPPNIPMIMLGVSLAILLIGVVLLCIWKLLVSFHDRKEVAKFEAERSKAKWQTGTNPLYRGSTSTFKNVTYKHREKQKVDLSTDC

`O=C(O)C[C@H](CN1CC[C@@H](CCc2ccc3c(n2)NCCC3)C1)c1cccc(OC[C@@H]2CCCO2)c1` [Example 15, (S)-4-((R)-3-(2-(5,6,7,8-tetrahydro-1,8-naphthyridin-2-yl)ethyl)pyrrolidin-1-yl)-3-(3-(((S)-tetra hydrofuran-2-yl)methoxy)phenyl)butanoic acid]: the IC50 in experiment [1] was 501 nM; in experiment [2], 39.8 nM; in experiment [3], 5.01 nM; in experiment [4], 100 nM; in experiment [5], 39.8 nM.

Turning to `COC[C@H](C)Oc1cccc(C(CC(=O)O)CN2CC[C@@H](CCc3ccc4c(n3)NCCC4)C2)c1` (single isomer, unassigned) [Example 5], the figures for the IC50 in experiment [1] and in experiment [4] were 251 nM and 3160 nM, respectively.

Consider `CO[C@@H](C)COc1cccc([C@H](CC(=O)O)CN2CC[C@@H](CCc3ccc4c(n3)NCCC4)C2)c1` [Example 3, (S)-3-(3-((S)-2-methoxypropoxy)phenyl)-4-((R)-3-(2-(5,6,7,8-tetrahydro-1,8-naphthyridin-2-yl)ethyl)pyrrolidin-1-yl)butanoic acid], for which the IC50 is 126 nM in experiment [1], 15.8 nM in experiment [2], 2.51 nM in experiment [3] and 15.8 nM in experiment [5].

In the case of `COCC(C)(C)Oc1cccc([C@H](CC(=O)O)CN2CC[C@@H](CCc3ccc4c(n3)NCCC4)C2)c1` [Example 11], the IC50 is 50.1 nM in experiment [1], 15.8 nM in experiment [2], 316 nM in experiment [4] and 63.1 nM in experiment [5].

For the molecule `O=C(O)C[C@H](CN1CC[C@@H](CCc2ccc3c(n2)NCCC3)C1)c1cccc(OC[C@H]2CCCO2)c1` [Example 14, (S)-4-((R)-3-(2-(5,6,7,8-Tetrahydro-1,8-naphthyridin-2-yl)ethyl)pyrrolidin-1-yl)-3-(3-(((R)-tetrahydrofuran-2-yl)methoxy)phenyl)butanoic acid], the IC50 in experiment [1] was 398 nM; in experiment [2] it was 20 nM; in experiment [3], 5.01 nM; in experiment [4], 79.4 nM; in experiment [5], 39.8 nM.

As for `COCC(COC)Oc1cccc(C(CC(=O)O)CN2CC[C@@H](CCc3ccc4c(n3)NCCC4)C2)c1` (stereo partly drawn) [Example 17, 3-(3-((1,3-Dimethoxypropan-2-yl)oxy)phenyl)-4-((R)-3-(2-(5,6,7,8-tetrahydro-1,8-naphthyridin-2-yl)ethyl)pyrrolidin-1-yl)butanoic acid], the IC50 in experiment [2] was 20 nM; in experiment [3], 12.6 nM; in experiment [4] it was 398 nM.

For `CO[C@H](C)COc1cccc([C@H](CC(=O)O)CN2CC[C@@H](CCc3ccc4c(n3)NCCC4)C2)c1` [Example 2, (S)-3-(3-((R)-2-methoxypropoxy)phenyl)-4-((R)-3-(2-(5,6,7,8-tetrahydro-1,8-naphthyridin-2-yl)ethyl)pyrrolidin-1-yl)butanoic acid], the IC50 was 100 nM in experiment [1], 2.51 nM in experiment [3], 63.1 nM in experiment [4] and 15.8 nM in experiment [5].

Consider `COCCOc1cc(OCCF)cc(C(CC(=O)O)CN2CC[C@@H](CCc3ccc4c(n3)NCCC4)C2)c1` (stereo partly drawn) [Example 18, 3-(3-(2-Fluoroethoxy)-5-(2-methoxyethoxy)phenyl)-4-((R)-3-(2-(5,6,7,8-tetrahydro-1,8-naphthyridin-2-yl)ethyl)pyrrolidin-1-yl)butanoic acid], for which the IC50 was 200 nM in experiment [1], 25.1 nM in experiment [2], 5.01 nM in experiment [3] and 398 nM in experiment [4].

For `CC(C)OCCOc1cccc([C@H](CC(=O)O)CN2CC[C@@H](CCc3ccc4c(n3)NCCC4)C2)c1` [Example 13, (S)-3-(3-(2-Isopropoxyethoxy)phenyl)-4-((R)-3-(2-(5,6,7,8-tetrahydro-1,8-naphthyridin-2-yl)ethyl)pyrrolidin-1-yl)butanoic acid], the IC50 in experiment [2] is 20 nM; in experiment [3] it was 10 nM; in experiment [4], 100 nM; in experiment [5], 31.6 nM.

As to `COCCOc1cc(OCCOC)cc([C@H](CC(=O)O)CN2CC[C@@H](CCc3ccc4c(n3)NCCC4)C2)c1` [Example 8, (S)-3-(3,5-Bis(2-methoxyethoxy)phenyl)-4-((R)-3-(2-(5,6,7,8-tetrahydro-1,8-naphthyridin-2-yl)ethyl)pyrrolidin-1-yl)butanoic acid], the IC50 in experiment [1] was 200 nM; in experiment [2] it was 20 nM; in experiment [3] it was 3.16 nM; in experiment [4], 126 nM; in experiment [5], 31.6 nM.

Take `O=C(O)CC(CN1CC[C@@H](CCc2ccc3c(n2)NCCC3)C1)c1cccc(OCC2COC2)c1` (stereo partly drawn) [Example 20, 3-(3-(Oxetan-3-ylmethoxy)phenyl)-4-((R)-3-(2-(5,6,7,8-tetrahydro-1,8-naphthyridin-2-yl)ethyl)pyrrolidin-1-yl)butanoic acid]: the IC50 in experiment [2] is 20 nM; in experiment [3] it was 7.94 nM; in experiment [4], 398 nM.

Consider `COC[C@@H](C)Oc1cccc([C@H](CC(=O)O)CN2CC[C@@H](CCc3ccc4c(n3)NCCC4)C2)c1` [Example 12, (S)-3-(3-(((R)-1-methoxypropan-2-yl)oxy)phenyl)-4-((R)-3-(2-(5,6,7,8-tetrahydro-1,8-naphthyridin-2-yl)ethyl)pyrrolidin-1-yl)butanoic acid], for which the IC50 in experiment [4] was 251 nM; in experiment [5], 63.1 nM.

As to `COCCOc1ccc(F)c([C@H](CC(=O)O)CN2CC[C@@H](CCc3ccc4c(n3)NCCC4)C2)c1` [Example 16, (S)-3-(2-Fluoro-5-(2-methoxyethoxy)phenyl)-4-((R)-3-(2-(5,6,7,8-tetrahydro-1,8-naphthyridin-2-yl)ethyl)pyrrolidin-1-yl)butanoic acid], the results for the IC50 in experiment [2] and in experiment [3] were 100 nM and 7.94 nM, respectively.

Consider `COC(C)(C)COc1cccc([C@H](CC(=O)O)CN2CC[C@@H](CCc3ccc4c(n3)NCCC4)C2)c1` [Example 4, (S)-3-(3-(2-methoxy-2-methylpropoxy)phenyl)-4-((R)-3-(2-(5,6,7,8-tetrahydro-1,8-naphthyridin-2-yl)ethyl)pyrrolidin-1-yl)butanoic acid], for which the IC50 in experiment [1] is 158 nM; in experiment [2], 15.8 nM; in experiment [4] it was 200 nM.

As to `COCCOc1cccc([C@H](CC(=O)O)CN2CC[C@@H](CCc3ccc4c(n3)NCCC4)C2)c1` [Example 1, (S)-3-(3-(2-methoxyethoxy)phenyl)-4-((R)-3-(2-(5,6,7,8-tetrahydro-1,8-naphthyridin-2-yl)ethyl)pyrrolidin-1-yl)butanoic acid], the IC50 in experiment [1] was 158 nM; in experiment [3] it was 3.16 nM; in experiment [5] it was 10 nM.

Turning to `COCCCOc1cccc(C(CC(=O)O)CN2CC[C@@H](CCc3ccc4c(n3)NCCC4)C2)c1` (stereo partly drawn) [Example 19, 3-(3-(3-Methoxypropoxy)phenyl)-4-((R)-3-(2-(5,6,7,8-tetrahydro-1,8-naphthyridin-2-yl)ethyl)pyrrolidin-1-yl)butanoic acid], the IC50 in experiment [2] was 12.6 nM; in experiment [3] it was 10 nM; in experiment [4] it was 158 nM; in experiment [5], 63.1 nM.
